Test results as given in publication PMC9558053, “Development of a novel high-throughput screen for the identification of new inhibitors of protein S-acylation” (The Journal of Biological Chemistry, 2022).

Biological target: T1, human zDHHC2 (Homo sapiens, UniProt Q9UIJ5)
T1 construct: expressed in transfected cells; host or cells: HEK293T
T1 sequence (Q9UIJ5 1-367): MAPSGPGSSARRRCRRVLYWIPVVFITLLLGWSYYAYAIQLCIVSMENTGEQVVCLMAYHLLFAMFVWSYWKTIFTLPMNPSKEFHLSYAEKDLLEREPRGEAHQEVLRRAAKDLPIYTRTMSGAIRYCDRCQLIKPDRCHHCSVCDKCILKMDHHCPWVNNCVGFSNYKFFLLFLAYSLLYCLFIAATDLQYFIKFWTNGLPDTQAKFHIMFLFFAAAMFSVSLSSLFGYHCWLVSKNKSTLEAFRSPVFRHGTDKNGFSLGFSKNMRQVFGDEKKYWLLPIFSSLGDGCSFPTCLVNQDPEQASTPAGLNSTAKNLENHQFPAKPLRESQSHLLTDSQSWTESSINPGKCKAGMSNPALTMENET
Assay: GFP-SNAP25b S-acylation in HEK293T cells co-expressing zDHHC2, copper-catalyzed click chemistry, Western blot
Type: cell-based
Conditions: for inhibition at 25 µM: HEK-293T, compound 25 μM, 4 h preincubation + 4 h labeling, read-out: SNAP25 S-acylation inhibition (%), zDHHC2; for inhibition at 25 µM / zDHHC2-mediated substrate (SNAP25) S-acylation Hill slope / IC50: in cellulo HEK293T; for zDHHC2-mediated substrate (SNAP25) S-acylation Hill slope / IC50: Western blot; for IC50: read-out: zDHHC2-mediated substrate (SNAP25) S-acylation IC50 (95 CI); for GFP-SNAP25 S-acylation in cell-based assays, newly synthesized compounds: resynthesized (UoS) material vs original hits, Supplemental Fig. 2 (zD2, zD3, zD7, zD15, zD17)
Description: The inhibitory activity of TTZ-1 and TTZ-2 on cells expressing SNAP25 and zDHHC2 was also examined. Human embryonic kidney 293T (HEK293T) cells were transfected with plasmids encoding GFP-tagged SNAP25b and HA-tagged zDHHC2. Cells were then preincubated for 4 h with either dimethyl sulfoxide (DMSO) as a vehicle control or increasing concentrations of TTZ-1/TTZ-2 (diluted in serum-free medium) before being metabolically labeled for a further 4 h with C16:0-azide. Samples were then lysed and processed by copper-catalyzed click chemistry to reveal the extent of S-acylation.
Figure 5 Activity of TTZ-1 and TTZ-2 against SNAP25 S-acylation by human zDHHC2 expressed in mammalian cells. HEK293T cells were transfected with a plasmid encoding GFP-SNAP25b together with a plasmid encoding human zDHHC2 (+zD2) or a control plasmid pEF-BOS-HA. Cells were preincubated for 4 h with increasing concentrations of TTZ-1 (A) or TTZ-2 (B) or DMSO (as a control) before metabolic labeling with 100 μM C16:0-azide for another 4 h. Cells were lysed, and proteins having incorporated C16:0-azide were labeled by click chemistry with an alkyne-IR800 dye. Protein samples were then resolved by SDS-PAGE and transferred to nitrocellulose membranes that were probed with an anti-GFP antibody (IR680). Representative images are shown for cells treated with TTZ-1 (A) or TTZ-2 (B). Top panels, click chemistry signal (top panel, Click [IR800]) and GFP immunoblot (middle panel, GFP [IR680]). Positions of the molecular mass markers (in kilodalton) are indicated on the right side of the membranes. Bottom panels A and B, data from three independent experiments performed in duplicate were quantified, and the inhibition of GFP-SNAP25b S-acylation was determined as stated in the Experimental procedures section. Graphs show mean ± SEM of inhibition of normalized S-acylation (click signal/GFP signal) in the presence of each compound. Data were analyzed and fit to a nonlinear curve using the log(inhibitor) versus normalized response (variable slope) equation. DMSO, dimethyl sulfoxide; HA, hemagglutinin; HEK293T, human embryonic kidney 293T cell line; TTZ, tetrazole; zDHHC, zinc finger DHHC domain–containing protein.
HEK293T cells were plated on poly-D-lysine–coated 24-well plates (catalog no.: 356413; Corning BioCoat, VWR) and transfected with 2.4 μg of pEF-zDHHC2 plasmid (or the control empty plasmid pEF-BOS-HA) for the measurement of zDHHC2 autoacylation and 4.8 μl of Lipofectamine 2000 (Invitrogen). For substrate acylation, cells were transfected with 1.6 μg of pEF-zDHHC plasmid (or the control empty plasmid pEF-BOS-HA) together with 0.8 μg of EGFP-SNAP25b plasmid and 4.8 μl of Lipofectamine 2000. Twenty-four hours post-transfection, cells were washed once with PBS and preincubated with ONO or UoS compounds diluted in 250 μl of serum-free DMEM for 4 h. S-acylation labeling was then started by the addition of 50 μl of 600 μM of either unmodified palmitic acid C16:0 or C16:0-azide (final concentration of 100 μM) diluted in serum-free DMEM supplemented with 1 mg/ml fatty acid–free BSA (Sigma; catalog no.: A7030). Cells were labeled for 4 h, washed once with PBS, then lysed on ice in 100 μl of 50 mM Tris (pH 8) containing 0.5% SDS and protease inhibitors (Sigma; catalog no.: P8340). Conjugation of IR800 alkyne dye or mPEG5K alkyne to C16:0-azide was carried out for 1 h at room temperature with end-over-end rotation by adding an equal volume of freshly prepared click chemistry reaction mixture containing the following: 5 μM IRDye 800CW alkyne (catalog no.: 929-60002; Li-COR) or 200 μM of mPEG5K-alkyne (catalog no.: JKA3177; Sigma), 4 mM CuSO4 (catalog no.: 451657; Sigma), 400 μM Tris[(1-benzyl-1H-1,2,3-triazol-4-yl)methyl]amine (catalog no.: 678937; Sigma), and 8 mM ascorbic acid (catalog no.: A15613; Alpha Aesar) in distilled water. About 67 μl of 4 × SDS-PAGE sample buffer containing 100 mM DTT was then added to the 200 μl sample. […]

Row | SMILES | inhibition at 25 µM [%] | zDHHC2-mediated substrate (SNAP25) S-acylation Hill slope | IC50 [µM] | GFP-SNAP25 S-acylation in cell-based assays, newly synthesized compounds
1 | CCCCCCCOc1ccc(C(=O)Nc2cccc3c2OC(c2nnn[nH]2)CN3)cc1 (centres unmarked) [TTZ-1, N-(2-(1H-Tetrazol-5-yl)-3,4-dihydro-2H-benzo[b][1,4]oxazin-8-yl)-4-(heptyloxy)benzamide] | 113 ± 5 | 7.6 | 14.4 | results comparable to the original hit compounds
2 | O=C(Nc1cccc2c1OC(c1nnn[nH]1)CN2)c1ccc(OCCCCc2ccccc2)cc1 (centres unmarked) [TTZ-2, N-(2-(1H-Tetrazol-5-yl)-3,4-dihydro-2H-benzo[b][1,4]oxazin-8-yl)-4-(4-phenylbutoxy)benzamide] | 84 ± 6 | 4.6 | 18.8 | results comparable to the original hit compounds
